From ChEMBL document CHEMBL1141459, “Kv7 (KCNQ) channel modulators and neuropathic pain” (J Med Chem, 2007)

Columns and labels:
Rattus norvegicus [1] = assay: Analgesic activity in SNL nerve injury in iv dosed rat model; assay type: functional; conditions: for minimal effective dose: Rattus norvegicus, iv, read-out: MED
Rattus norvegicus [2] = species on record: Rattus norvegicus; assay: Analgesic activity in streptozotocin-induced diabetic rat model of pain; assay type: functional; conditions: read-out: MED
Rattus norvegicus [3] = assay: Analgesic activity in carrageenan model in po dosed rat model; assay type: functional; conditions: read-out: MED
Rattus norvegicus [4] = assay: Analgesic activity in SNL nerve injury in po dosed rat model; assay type: functional
Rattus norvegicus [5] = assay: Analgesic activity in formalin-induced pain hypersensitivity in po dosed rat; assay type: functional
Rattus norvegicus [6] = assay: Analgesic activity in CCI and SNL nerve injury in po dosed rat model of pain; assay type: functional; conditions: read-out: MED
[7] = Activity at Kv.7 channel expressed in cloned CHO cells by patch clamp method; assay type: cell-based
[8] = target: Potassium voltage-gated channel subfamily KQT member 2 (Homo sapiens, UniProt O43526); assay: Activity at Kv 7.2 channel expressed in cloned CHO cells by [86Rb] efflux assay; assay type: cell-based
Potassium voltage-gated channel subfamily KQT member 2, sequence (O43526 whole entry): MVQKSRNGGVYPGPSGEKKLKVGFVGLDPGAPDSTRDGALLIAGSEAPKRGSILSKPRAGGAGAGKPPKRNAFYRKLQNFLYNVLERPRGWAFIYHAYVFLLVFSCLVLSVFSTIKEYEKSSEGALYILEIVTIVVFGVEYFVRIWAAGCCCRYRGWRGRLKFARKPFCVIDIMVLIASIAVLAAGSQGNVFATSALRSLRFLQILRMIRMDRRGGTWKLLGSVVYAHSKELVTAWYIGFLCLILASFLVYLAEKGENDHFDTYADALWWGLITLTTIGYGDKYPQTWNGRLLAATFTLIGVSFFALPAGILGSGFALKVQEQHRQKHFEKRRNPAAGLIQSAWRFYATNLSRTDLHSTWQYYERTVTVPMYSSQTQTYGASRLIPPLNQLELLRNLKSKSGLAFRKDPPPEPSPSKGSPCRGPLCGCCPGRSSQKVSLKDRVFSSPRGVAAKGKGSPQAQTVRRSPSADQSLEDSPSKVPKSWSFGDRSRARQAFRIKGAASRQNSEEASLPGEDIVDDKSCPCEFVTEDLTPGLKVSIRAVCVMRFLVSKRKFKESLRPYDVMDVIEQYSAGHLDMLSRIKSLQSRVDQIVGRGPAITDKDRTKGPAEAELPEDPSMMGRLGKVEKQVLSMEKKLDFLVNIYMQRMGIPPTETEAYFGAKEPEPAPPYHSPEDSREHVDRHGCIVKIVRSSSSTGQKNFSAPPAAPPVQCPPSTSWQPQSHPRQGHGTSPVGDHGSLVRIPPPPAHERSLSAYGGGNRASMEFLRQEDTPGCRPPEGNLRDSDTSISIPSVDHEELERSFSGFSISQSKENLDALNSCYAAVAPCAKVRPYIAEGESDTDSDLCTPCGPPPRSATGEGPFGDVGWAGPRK

Rattus norvegicus [9] = species on record: Rattus norvegicus; assay: Toxicity in rat by rotarod test; assay type: organism-based; conditions: in vivo
[10] = Therapeutic index, ratio of ED50 in rotor rod test in rat to ED50 in rat kindling model of epileptic seizures; conditions: read-out: TI
[11] = Therapeutic index, ratio of ED50 in rotor rod test in rat to ED50 in rat spinal nerve ligation model of neuropathic pain; assay type: organism-based; conditions: in vivo, read-out: TI
Rattus norvegicus [12] = assay: Analgesic activity in formalin-induced pain hypersensitivity in ip dosed rat; assay type: functional

Question: Which results are given for `C[C@H](NC(=O)/C=C/c1ccc(F)cc1)c1ccc(F)c(N2CCOCC2)c1`?
Answer: minimal effective dose (Rattus norvegicus [1]): 10 mg/kg; minimal effective dose (Rattus norvegicus [2]): 10 mg/kg

Question: Which minimal effective dose (Rattus norvegicus [1]) does the source give for `C[C@H](NC(=O)/C=C/c1ccccc1F)c1cccc(-n2cccn2)c1` here?
Answer: 10 mg/kg

Question: For `CC(NC(=O)c1sc(-c2ccccc2F)nc1C(F)(F)F)c1cccc(-c2cccc(OC(F)(F)F)c2)c1` (stereo unspecified), which MED (Rattus norvegicus [1]) is on record?
Answer: 10 mg/kg

Question: And the minimal effective dose (Rattus norvegicus [1])?
Answer: 10 mg/kg

Question: With `C[C@H](NC(=O)/C=C/c1ccccc1F)c1cccc(Oc2cccnc2)c1` as the molecule, how does the minimal effective dose (Rattus norvegicus [1]) read?
Answer: 10 mg/kg

Question: With `O=C(Nc1ccc(Cl)nc1)c1ccc(F)c(F)c1` as the molecule, how does the minimal effective dose (Rattus norvegicus [3]) read?
Answer: 30 mg/kg

Question: And the ED50 (Rattus norvegicus [4])?
Answer: 25 mg/kg

Question: Which ED50 (Rattus norvegicus [5]) does the source give for `CCOC(=O)Nc1ccc(NCc2ccc(F)cc2)cc1N` [EZOGABINE] here?
Answer: 47.6 mg/kg

Question: And the minimal effective dose (Rattus norvegicus [6])?
Answer: 10 mg/kg

Question: And the EC50 [7]?
Answer: 1 µM

Question: What about the EC50 [8] of the same molecule?
Answer: < 0.15 µM

Question: What about the ED50 (Rattus norvegicus [9]) of the same molecule?
Answer: 40 mg/kg

Question: What about the selectivity ratio [10] of the same molecule?
Answer: 4

Question: What about the selectivity ratio [11] of the same molecule?
Answer: 1.6

Question: What about the ED50 (Rattus norvegicus [12]) of the same molecule?
Answer: 6.6 mg/kg
